Reference: US10828317B2, “Method of treating bacterial infections” (priority 2016, dated 2020)
Values joined by “and” are separate entries in the source; they are usually repeats but may differ in a detail not shown here. Equal entries are not always repeated. Where two headings read alike, the source gives them in different places.

Tests used:
K. pneumoniae EN0145 = experiment: MIC, KPC-2; type: cell-based; settings: Klebsiella pneumoniae, read-out: MIC
E. coli = experiment: Murine peritonitis model; type: in vivo, mice; parameters: score at sampling: scale not given here
K. oxytoca EN0392 = experiment: MIC; type: cell-based; settings: Klebsiella oxytoca
K. pneumoniae EN0233 = experiment: MIC; type: cell-based; settings: Klebsiella pneumoniae, read-out: MIC
E. coli strain no 2 = experiment: MIC vs E. coli LMG 15862, penicillin resistant; settings: Escherichia coli
E. coli B EN0458 = experiment: MIC; type: cell-based, Escherichia coli B; settings: Escherichia coli, read-out: MIC
K. pneumoniae EN0436 = experiment: MIC, colistinR; type: cell-based; settings: Klebsiella pneumoniae, read-out: MIC
K. pneumoniae EN0437 = experiment: MIC, colistinR; type: cell-based; settings: Klebsiella pneumoniae, read-out: MIC
K. pneumoniae EN0142 = experiment: MIC, OXA-48, CTX-M-15; type: cell-based; settings: Klebsiella pneumoniae, EN0142, combination didanosine+trimethoprim+uridine, Table 20
E. coli EN012 = experiment: MIC, WT; type: cell-based, Escherichia coli; settings: Escherichia coli, EN012, combination FdUrd+trimethoprim+uridine, Table 8; read-out: MIC
K. pneumoniae EN0262 = experiment: MIC, ESBL (+), KPC+; type: cell-based
E. coli EN0138 = experiment: MIC, ESBL (CTX-M-9); type: cell-based; settings: Escherichia coli, EN0138, combination AZT+trimethoprim+uridine, Table 17B; read-out: MIC
K. pneumoniae EN010 = experiment: MIC, WT; type: cell-based, Klebsiella pneumoniae; settings: Klebsiella pneumoniae, read-out: MIC
S. typhimurium EN0466 = experiment: MIC; type: cell-based; settings: Salmonella enterica
[1] = test system: Helicobacter pylori APV00918; experiment: MIC; type: cell-based; settings: Helicobacter pylori, APV00918, combination FdUrd+trimethoprim+uridine, Table 22A
Text: Inhibition of Heliobacter is important in view of increasing resistance and its association to gastric cancer.

K. pneumoniae EN0143 = experiment: MIC, ESBL (SHV-12); type: cell-based; settings: Klebsiella pneumoniae, read-out: MIC
[2] = Trimethoprim 30 mg/kg, per mouse

COc1cc(Cc2cnc(N)nc2N)cc(OC)c1OC [Trimethoprim, trimethoprim]
MIC (K. pneumoniae EN0145; EN0145, combination AZT+trimethoprim+uridine, Table 17B): 2 µg/mL | MIC (K. pneumoniae EN0145; EN0145, combination FdUrd+trimethoprim+uridine, Table 19): > 8 µg/mL | MIC (K. pneumoniae EN0145; EN0145, combination didanosine+trimethoprim+uridine, Table 20): > 8 µg/mL | CFU/ml PF (E. coli; [2]): 9.50E+03 CFU/ml and 1.60E+06 CFU/ml and 3.25E+05 CFU/ml and 4.75E+05 CFU/ml | log CFU/ml PF (E. coli; [2]): 3.98 log CFU/ml and 6.20 log CFU/ml and 5.51 log CFU/ml and 5.68 log CFU/ml | score at sampling (E. coli; [2]): 1 | inhibition in mice infected with E. coli (in words) (E. coli; murine peritonitis model): slight inhibition | MIC (K. oxytoca EN0392; EN0392, Combination 1 AZT+trimethoprim+uridine, Table 16): 0.064 µg/mL | MIC (K. oxytoca EN0392; EN0392, Combination 2 AZT+trimethoprim+uridine+thymidine, Table 16): 0.5 µg/mL | MIC (K. oxytoca EN0392; EN0392, combination AZT+trimethoprim+uridine, Table 6): 0.06 µg/mL | MIC (K. oxytoca EN0392; EN0392, combination FdUrd+trimethoprim+uridine, Table 8): 0.25 µg/mL | MIC (K. oxytoca EN0392; EN0392, combination didanosine+trimethoprim+uridine, Table 10): 0.5 µg/mL | MIC (K. pneumoniae EN0233; EN0233, combination FdUrd+trimethoprim+uridine, Table 19): 1 µg/mL | MIC (K. pneumoniae EN0233; EN0233, combination didanosine+trimethoprim+uridine, Table 20): 2 µg/mL | MIC (E. coli strain no 2; NO2, read-out: MIC FdUrd/Trimethoprim (1:2), uridine 10 μg/ml, thymidine 10 μM): > 40 µg/mL | MIC (E. coli strain no 2; NO2, read-out: MIC FdUrd/Trimethoprim (1:2), uridine 100 μg/ml, thymidine 10 μM): > 40 µg/mL | MIC (E. coli B EN0458; BEN0458, combination FdUrd+trimethoprim+uridine, Table 8): 0.064 µg/mL | MIC (E. coli B EN0458; BEN0458, combination didanosine+trimethoprim+uridine, Table 10): 0.064 µg/mL | MIC (K. pneumoniae EN0436; EN0436, combination FdUrd+trimethoprim+uridine, Table 19): 0.5 µg/mL | MIC (K. pneumoniae EN0436; EN0436, combination didanosine+trimethoprim+uridine, Table 20): 0.5 µg/mL | MIC (K. pneumoniae EN0437; EN0437, combination AZT+trimethoprim+uridine, Table 17B): > 4 µg/mL | MIC (K. pneumoniae EN0437; EN0437, combination FdUrd+trimethoprim+uridine, Table 19): > 8 µg/mL | MIC (K. pneumoniae EN0437; EN0437, combination didanosine+trimethoprim+uridine, Table 20): > 8 µg/mL | MIC (K. pneumoniae EN0142): > 8 µg/mL | MIC (E. coli EN012): 0.064 µg/mL | MIC (K. pneumoniae EN0262; Klebsiella pneumoniae, EN0262, combination AZT+trimethoprim+uridine, Table 17B and 18, read-out: MIC): 0.5 µg/mL | MIC (K. pneumoniae EN0262; Klebsiella pneumoniae, EN0262, combination FdUrd+trimethoprim+uridine, Table 19 and 21, read-out: MIC): 4 µg/mL | MIC (K. pneumoniae EN0262; Klebsiella pneumoniae, EN0262, combination didanosine+trimethoprim+uridine, Table 20 and 21, read-out: MIC): 4 µg/mL | MIC (K. pneumoniae EN0262; combination AZT+trimethoprim+uridine, Table 17B and 18): 0.5 µg/mL | MIC (K. pneumoniae EN0262; combination FdUrd+trimethoprim+uridine, Table 19 and 21): 4 µg/mL | MIC (K. pneumoniae EN0262; combination didanosine+trimethoprim+uridine, Table 20 and 21): 4 µg/mL | MIC (E. coli EN0138): 0.016 µg/mL | MIC (K. pneumoniae EN010; EN010, Combination 2 AZT+trimethoprim+uridine+thymidine, Table 16): 1 µg/mL | MIC (K. pneumoniae EN010; EN010, combination AZT+trimethoprim+uridine, Table 6): 0.5 µg/mL | MIC (K. pneumoniae EN010; EN010, combination FdUrd+trimethoprim+uridine, Table 8): 1 µg/mL | MIC (K. pneumoniae EN010; EN010, combination didanosine+trimethoprim+uridine, Table 10): 1 µg/mL | MIC (S. typhimurium EN0466; Combination 1 AZT+trimethoprim+uridine, Table 16): 0.064 µg/mL | MIC (S. typhimurium EN0466; Combination 2 AZT+trimethoprim+uridine+thymidine, Table 16): 0.5 µg/mL | MIC (S. typhimurium EN0466; combination AZT+trimethoprim+uridine, Table 6): 0.06 µg/mL | MIC (S. typhimurium EN0466; combination FdUrd+trimethoprim+uridine, Table 8): 0.25 µg/mL | MIC (S. typhimurium EN0466; combination didanosine+trimethoprim+uridine, Table 10): 0.5 µg/mL | MIC [1]: 0.125 µg/mL | MIC (K. pneumoniae EN0143; EN0143, combination AZT+trimethoprim+uridine, Table 17B): > 4 µg/mL | MIC (K. pneumoniae EN0143; EN0143, combination FdUrd+trimethoprim+uridine, Table 19): > 8 µg/mL | MIC (K. pneumoniae EN0143; EN0143, combination didanosine+trimethoprim+uridine, Table 20): > 8 µg/mL
